Assay results from PubChem BioAssay AID1259408 (Genetic Toxicology Data Bank (GENE-TOX), 2018).
Activity calls are given as the source filed them. The rule behind the calls is not given here.

Tested on: GENE-TOX genotoxicity assays, various organisms and cells
Assay: GENE-TOX mutagenicity studies
Conditions: for call: Assay Type: In vivo carcinogenicity studies
[1] = Species/Cell Type: Chinese hamster lung (V79) cells, Assay Type: Forward gene mutation at the HPRT or ouabain locus, Assay Code: V79+, Evaluation Type: Evaluation A (Pre-1980)
[2] = Species/Cell Type: Bacillus subtilis (H17 vs M45), Assay Type: Rec-assay, spot test, DNA effects (bacterial DNA repair), Assay Code: REWT, Evaluation Type: Evaluation A (Pre-1980)
[3] = Species/Cell Type: Salmonella typhimurium (one or more of the five standard strains: TA98, TA100, TA1535, TA1537, and TA1538), Assay Type: Histidine reverse gene mutation, Ames assay, Assay Code: SAL+*, Activation: With metabolic activation, Evaluation Type: Evaluation A (Pre-1980)
[4] = Species/Cell Type: Nonhuman, Assay Code: CCGT, Evaluation Type: Evaluation A (Pre-1980)
[5] = Species/Cell Type: Salmonella typhimurium (one or more of the five standard strains: TA98, TA100, TA1535, TA1537, and TA1538), Assay Type: Histidine reverse gene mutation, Ames assay, Assay Code: SALT, Evaluation Type: Evaluation A (Pre-1980)
[6] = Species/Cell Type: Human, Assay Type: Sister-chromatid exchange (SCE) in vitro, Assay Code: SC1T, Evaluation Type: Evaluation B (Post-1980)
[7] = Species/Cell Type: Nonhuman, Assay Type: Sister-chromatid exchange (SCE) in vitro, Assay Code: SC2T, Evaluation Type: Evaluation B (Post-1980)

`Clc1ccc(C(c2ccc(Cl)cc2)C(Cl)(Cl)Cl)cc1` was tested. Which mutagenic call [1] did it give?
The mutagenic call was “active; positive”.

What about the mutagenic call (Species/Cell Type: Drosophila melanogaster, Assay Type: Aneuploidy, partial sex chromosome loss, chromosome aberrations, Assay Code: DAP+M, Evaluation Type: Evaluation A (Pre-1980)) of the same compound?
Its mutagenic call is “active; positive”.

What about the mutagenic call (Species/Cell Type: Drosophila melanogaster, Assay Type: Aneuploidy, sex chromosome gain, chromosome aberrations, Assay Code: DAGT, Evaluation Type: Evaluation A (Pre-1980)) of the same compound?
The mutagenic call was “no conclusion”.

What about the mutagenic call (Species/Cell Type: Drosophila melanogaster, Assay Type: Aneuploidy, whole sex chromosome loss, chromosome aberrations, Assay Code: DACT, Evaluation Type: Evaluation A (Pre-1980)) of the same compound?
Its mutagenic call is “no conclusion”.

What about the mutagenic call (Species/Cell Type: Drosophila melanogaster, Assay Type: Sex-linked recessive lethal gene mutation, Assay Code: SRL-, Evaluation Type: Evaluation A (Pre-1980)) of the same compound?
Its mutagenic call is “inactive; negative”.

And the mutagenic call (Species/Cell Type: Escherichia coli polA (W3119 vs P3478), Assay Type: Rec-assay, DNA effects (bacterial DNA repair), Assay Code: RE1T, Evaluation Type: Evaluation A (Pre-1980))?
The mutagenic call was “no conclusion”.

What about the mutagenic call (Species/Cell Type: Mammalian polychromatic erythrocytes, Assay Type: Micronucleus test, chromosome aberrations, Assay Code: MNTT, Evaluation Type: Evaluation A (Pre-1980)) of the same compound?
The mutagenic call was “no conclusion”.

And the mutagenic call (Species/Cell Type: Mouse, Sex: Male, Assay Type: Sperm morphology, Assay Code: SPI-, Evaluation Type: Evaluation A (Pre-1980))?
Its mutagenic call is “inactive; negative”.

What about the mutagenic call (Species/Cell Type: Nonhuman, Assay Type: Chromosome aberrations in vitro, Assay Code: CY&+, Evaluation Type: Evaluation A (Pre-1980)) of the same compound?
The mutagenic call was “active; positive”.

What about the call (Species/Cell Type: Nonhuman, Assay Code: CCG+, Evaluation Type: Evaluation A (Pre-1980)) of the same compound?
The call was “active; positive”.

What about the mutagenic call (Species/Cell Type: Rodents, Sex: Male, Assay Type: Dominant lethal test, Assay Code: DLTT, Evaluation Type: Evaluation A (Pre-1980)) of the same compound?
Its mutagenic call is “no conclusion”.

What about the mutagenic call (Species/Cell Type: Saccharomyces cerevisiae, Assay Type: Mitotic recombination or gene conversion, Assay Code: YEH-*, Activation: With metabolic activation, Evaluation Type: Evaluation A (Pre-1980)) of the same compound?
Its mutagenic call is “inactive; negative”.

What about the mutagenic call (Species/Cell Type: Salmonella typhimurium (one or more of the five standard strains: TA98, TA100, TA1535, TA1537, and TA1538), Assay Type: Histidine reverse gene mutation, Ames assay, Assay Code: SAL-, Evaluation Type: Evaluation A (Pre-1980)) of the same compound?
Its mutagenic call is “inactive; negative”.

What about the mutagenic call (Species/Cell Type: Salmonella typhimurium, Serratia marcesens, Assay Type: Forward and reverse gene mutation, host-mediated assay, Assay Code: HM2-, Evaluation Type: Evaluation A (Pre-1980)) of the same compound?
The mutagenic call was “inactive; negative”.

Which mutagenic call [2] does the source give for `O=S(=O)(O)c1cc(O)c2c(O)c(N=Nc3ccccc3)c(S(=O)(=O)O)cc2c1` here?
Its mutagenic call is “no conclusion”.

Which mutagenic call (Species/Cell Type: Human lymphocytes, Assay Type: Sister-chromatid exchange (SCE) in vitro, Assay Code: SCL+D, Dose Response: With dose response, Evaluation Type: Evaluation B (Post-1980)) does the source give for `ClC(Br)Br` here?
The mutagenic call was “active; positive”.

And the mutagenic call (Species/Cell Type: Human, Assay Type: Sister-chromatid exchange (SCE) in vitro, Assay Code: SC1+D, Dose Response: With dose response, Evaluation Type: Evaluation B (Post-1980))?
Its mutagenic call is “active; positive”.

What about the mutagenic call (Species/Cell Type: Nonhuman, Assay Type: Sister-chromatid exchange (SCE) in vivo, Assay Code: SC3+D, Dose Response: With dose response, Evaluation Type: Evaluation B (Post-1980)) of the same compound?
Its mutagenic call is “active; positive”.

Which results are given for `Nc1ccc([N+](=O)[O-])cc1O`?
mutagenic call (Species/Cell Type: Neurospora crassa, Assay Type: Aneuploidy, chromosome aberrations, Assay Code: NEN-, Evaluation Type: Evaluation A (Pre-1980)): inactive; negative; mutagenic call (Species/Cell Type: Rodents, Sex: Male, Assay Type: Dominant lethal test, Assay Code: DLT-, Evaluation Type: Evaluation A (Pre-1980)): inactive; negative; mutagenic call (Species/Cell Type: Salmonella typhimurium (one or more of the five standard strains: TA98, TA100, TA1535, TA1537, and TA1538), Assay Type: Histidine reverse gene mutation, Ames assay, Assay Code: SAL+, Evaluation Type: Evaluation A (Pre-1980)): active; positive

How did the mutagenic call [3] turn out when `CCN(CC)CC[NH+]([O-])c1ccc(C)c2sc3cc(Cl)ccc3c(=O)c12` (stereo not given) was run?
The mutagenic call was “active; positive”.

For `O=c1c2ccc3cccc4c(=O)cc(c5ccccc15)-c2c34`, which mutagenic call (Species/Cell Type: Chinese hamster lung (V79) cells, Assay Type: Forward gene mutation at the HPRT or ouabain locus, Assay Code: V79-, Evaluation Type: Evaluation A (Pre-1980)) is on record?
Its mutagenic call is “inactive; negative”.

What about the call [4] of the same compound?
Its call is “no conclusion”.

What about the mutagenic call [5] of the same compound?
Its mutagenic call is “no conclusion”.

For `O=C(O)[C@@H]1CCCN1`, which mutagenic call (Species/Cell Type: Salmonella typhimurium, Assay Type: Forward and reverse gene mutation, host-mediated assay, Assay Code: HMA-, Evaluation Type: Evaluation A (Pre-1980)) is on record?
The mutagenic call was “inactive; negative”.

Which mutagenic call [6] does the source give for `CC(=O)Nc1ccccc1O` here?
Its mutagenic call is “no conclusion”.

Which mutagenic call [1] does the source give for `O[C@H]1c2ccc3cc4ccccc4cc3c2[C@@H]2OC2[C@@H]1O` (stereo not given in full) here?
The mutagenic call was “active; positive”.

With `O=NN(CCCl)C(=O)NCCCCNC(=O)N(CCCl)N=O` as the compound, how does the mutagenic call (Species/Cell Type: Drosophila melanogaster, Assay Type: Sex-linked recessive lethal gene mutation, Assay Code: SRL+, Evaluation Type: Evaluation A (Pre-1980)) read?
The mutagenic call was “active; positive”.

And the mutagenic call (Species/Cell Type: Saccharomyces cerevisiae, Assay Type: Mitotic recombination or gene conversion, Assay Code: YEC+, Evaluation Type: Evaluation A (Pre-1980))?
Its mutagenic call is “active; positive”.

`c1ccc2c3c(ccc2c1)Cc1c(ccc2ccccc12)C3` was tested. Which mutagenic call [3] did it give?
Its mutagenic call is “active; positive”.

Which mutagenic call (Species/Cell Type: Chinese hamster lung (V79) cells, Assay Type: Forward gene mutation at the HPRT or ouabain locus, Assay Code: V79-*, Activation: With metabolic activation, Evaluation Type: Evaluation A (Pre-1980)) does the source give for `Oc1ccc2c(c1)cc1ccc3cccc4ccc2c1c34` here?
The mutagenic call was “inactive; negative”.

What about the call [4] of the same compound?
Its call is “no conclusion”.

What about the mutagenic call [5] of the same compound?
Its mutagenic call is “no conclusion”.

Which results are given for `O=C(O)c1c(Cl)c(Cl)c(Cl)c(Cl)c1-c1c2cc(I)c(=O)c(I)c-2oc2c(I)c(O)c(I)cc12`?
mutagenic call [2]: no conclusion; mutagenic call (Species/Cell Type: Bacillus subtilis (H17 vs M45T), Assay Type: Rec-assay, spot test, DNA effects (bacterial DNA repair), Assay Code: REXT, Evaluation Type: Evaluation A (Pre-1980)): no conclusion; mutagenic call [6]: no conclusion; mutagenic call [7]: no conclusion; mutagenic call (Species/Cell Type: Saccharomyces cerevisiae, Assay Type: Mitotic recombination or gene conversion, Assay Code: YEC-, Evaluation Type: Evaluation A (Pre-1980)): inactive; negative

Which results are given for `S=c1nc[nH]c2nc[nH]c12`?
mutagenic call (Species/Cell Type: Escherichia coli polA (W3119 vs P3478), Assay Type: Rec-assay, DNA effects (bacterial DNA repair), Assay Code: RE1+, Evaluation Type: Evaluation A (Pre-1980)): active; positive; mutagenic call (Species/Cell Type: Mammalian germ cells, Sex: Male, Assay Type: Chromosome aberrations in vivo, Assay Code: CY9+, Evaluation Type: Evaluation A (Pre-1980)): active; positive; mutagenic call (Species/Cell Type: Mammalian polychromatic erythrocytes, Assay Type: Micronucleus test, chromosome aberrations, Assay Code: MNT+, Evaluation Type: Evaluation A (Pre-1980)): active; positive; mutagenic call (Species/Cell Type: Mouse (C3H/10T1/2) cells, Assay Type: Cell transformation, Assay Code: CTH-, Evaluation Type: Evaluation A (Pre-1980)): inactive; negative; mutagenic call (Species/Cell Type: Mouse, Sex: Male, Assay Type: Heritable translocation test, chromosome aberrations, Assay Code: HTT-, Evaluation Type: Evaluation A (Pre-1980)): inactive; negative; mutagenic call (Species/Cell Type: Nonhuman bone marrow, Assay Type: Chromosome aberrations, in vivo, Assay Code: CY#+D, Dose Response: With dose response, Evaluation Type: Evaluation A (Pre-1980)): active; positive; call [4]: no conclusion; mutagenic call [7]: no conclusion; mutagenic call (Species/Cell Type: Rodents, Sex: Male, Assay Type: Dominant lethal test, Assay Code: DLT+, Evaluation Type: Evaluation A (Pre-1980)): active; positive

What does the source list for `CCCCCN(CCCCC)N=O`?
mutagenic call [1]: active; positive; mutagenic call [3]: active; positive
